The results in this text go back to ChEMBL document CHEMBL4364346, “Structure optimization of a new class of PPARγ antagonists” (Bioorg Med Chem, 2019).

Data set [1] deals with T1, Peroxisome proliferator-activated receptor gamma (Homo sapiens, UniProt P37231).
T1 sequence (P37231 whole entry): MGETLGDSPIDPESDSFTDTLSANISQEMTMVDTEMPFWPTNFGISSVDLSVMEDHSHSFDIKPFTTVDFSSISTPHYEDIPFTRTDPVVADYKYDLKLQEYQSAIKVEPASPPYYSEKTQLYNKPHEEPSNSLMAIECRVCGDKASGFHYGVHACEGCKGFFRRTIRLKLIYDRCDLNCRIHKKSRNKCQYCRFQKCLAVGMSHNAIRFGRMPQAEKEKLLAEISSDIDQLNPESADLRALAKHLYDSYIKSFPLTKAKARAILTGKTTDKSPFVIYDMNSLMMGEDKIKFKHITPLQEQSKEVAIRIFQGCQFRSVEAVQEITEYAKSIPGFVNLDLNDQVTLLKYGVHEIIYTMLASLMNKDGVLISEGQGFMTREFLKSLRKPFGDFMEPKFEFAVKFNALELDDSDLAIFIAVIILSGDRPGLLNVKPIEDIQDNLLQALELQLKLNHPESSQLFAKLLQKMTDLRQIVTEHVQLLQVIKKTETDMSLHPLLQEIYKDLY
Briefly: Antagonist actvity in pFA-GAL4-DBD fused PPARgamma LBD (unknown origin) transfected in HEK293T cells assessed as inhibition of rosiglitazone-induced PPARgamma transactivation incubated for 24 hrs by luciferase reporter gene assay. The data set is classed as cell-based. On the technique in general: In a reporter assay the amount or activity of a reporter protein is the signal.

A short description of data set [2]: Solubility of compound in PBS buffer pH 7.4 with 1% DMSO measured after 1 and 24 hrs. To be noted: PBS buffer with 1% DMSO. It counts as physicochemical.

The structures appear in SMILES notation. Values after ≈ are worked out from the molar mass of the structure shown.

As a reminder, the IC50 is the concentration at which inhibition is half-maximal. Broadly, the solubility is the dissolved amount per volume that the medium holds. High values mean much dissolved substance, low ones little dissolved substance.

With `CCCC/C(=C\c1cc(OCc2cn(Cc3ccc(C(=O)O)cc3)nn2)ccc1OCc1ccc(C(F)(F)F)cc1)C(=O)O`, the IC50 result in data set [1] was “Not Active”. Turning to `CCC/C(=C\c1cc(OCc2ccc3nc(C(F)(F)F)cc(OC)c3c2)ccc1OCc1ccccc1F)C(=O)O`, the IC50 in data set [1] (read-out: IC50) was 3.5 µM. The same measure, in the same setting: with `CCC/C(=C\c1cc(OCc2ccc3nc(C(F)(F)F)cc(OC)c3c2)ccc1OCc1ccccc1)C(=O)O` the figure was 7.2 µM; with `COc1cc(C(F)(F)F)nc2ccc(COc3ccc(OCc4ccc(F)cc4)c(/C=C/C(=O)O)c3)cc12`, 11 µM. Turning to `CCC/C(=C\c1cc(OCc2ccc3nc(C(F)(F)F)cc(OC)c3c2)ccc1OCC1CCNCC1)C(=O)O`, in data set [1], the IC50 result is “Not Active”. `CCC/C(=C\c1cc(OCc2ccc3nc(C(F)(F)F)cc(OC)c3c2)ccc1OCc1cccc(F)c1)C(=O)O`: the IC50 in data set [1] (read-out: IC50) stood at 3.9 µM. Same read-out and setting: with `CCC/C(=C\c1cc(OCc2ccc3c(ccc[n+]3[O-])c2)ccc1OCc1ccc(F)cc1)C(=O)O` the figure was 6.1 µM. Same read-out and setting: the same measure for `CCC/C(=C\c1cc(OCc2ccc3nc(C)ccc3c2)ccc1OCc1ccc(F)cc1)C(=O)O`: 4.2 µM; for `CCC/C(=C\c1cc(OCc2ccc3[nH]c(=O)ccc3c2)ccc1OCc1ccc(F)cc1)C(=O)O`: 6.1 µM; for `CCCC/C(=C\c1cc(OCc2ccc3nc(C(F)(F)F)cc(OC)c3c2)ccc1OCc1ccc(OC(F)F)cc1)C(=O)O`: 2.6 µM. Regarding `CCCC/C(=C\c1cc(OCc2ccc3nc(C(F)(F)F)cc(OC)c3c2)ccc1OCc1ccc(OC(F)(F)F)cc1)C(=O)O`, the IC50 in data set [1] (read-out: IC50) came out at 1.9 µM. In the case of `CCC/C(=C\c1cc(OCc2ccc3ccccc3c2)ccc1OCc1ccc(F)cc1)C(=O)O`, in data set [1] (read-out: IC50), the IC50 is 15.8 µM. For `CCC/C(=C\c1cc(OCc2ccc(N(C)C)cc2)ccc1OCc1ccc(F)cc1)C(=O)O`, the IC50 entry in data set [1] is reported as “Not Active”. Regarding `CCCn1c(C(=O)O)cc2c(OC)ccc(OCc3ccc4nc(C(F)(F)F)cc(OC)c4c3)c21`, the IC50 in data set [1] (read-out: IC50) came to 3.9 µM.

On to `COc1cc(C(F)(F)F)nc2ccc(COc3ccc(OCC4CCN(C)CC4)c(/C=C(\CCC4CC4)C(=O)O)c3)cc12`, for which, in data set [1] (read-out: IC50), the IC50 is 7.5 µM. On the same count and under the same terms, with `CCC/C(=C\c1cc(OCc2ccc3ncccc3c2)ccc1OCc1ccc(F)cc1)C(=O)O` the figure was 5 µM. On to `CCCC/C(=C\c1cc(OCc2ccc3nc(C(F)(F)F)cc(OC)c3c2)ccc1OCc1ccc(F)cc1)C(=O)O`, for which the IC50 in data set [1] (read-out: IC50) was found to be 2.3 µM.

As for `CCC/C(=C\c1cc(OCc2ccc3ccccc3n2)ccc1OCc1ccc(F)cc1)C(=O)O`, the IC50 in data set [1] (read-out: IC50) came out at 13.1 µM. Turning to `CCC/C(=C\c1cc(OC)ccc1OCc1ccc2nc(C(F)(F)F)cc(OC)c2c1)C(=O)O`, the IC50 result in data set [1] is recorded as “Not Active”. In the case of `CCC/C(=C\c1cc(OCc2ccc3nc(C(F)(F)F)cc(OC)c3c2)ccc1OCc1ccncc1)C(=O)O`, the IC50 in data set [1] (read-out: IC50) was 4.7 µM. On the same count and under the same terms, the same measure for `CCC/C(=C\c1cc(OCc2ccc3cccnc3c2)ccc1OCc1ccc(F)cc1)C(=O)O`: 23.9 µM.

Molecule `CCCC/C(=C\c1cc(OCc2ccc3nc(C(F)(F)F)cc(OC)c3c2)ccc1OCc1ccc(C(F)(F)F)cc1)C(=O)O` had a solubility at 24 h in data set [2] of 50 to 75 µM (≈ 31.7 to 47.5 µg/mL). As to `CCC/C(=C\c1cc(OCc2ccc3[nH]ccc3c2)ccc1OCc1ccc(F)cc1)C(=O)O`, in data set [1], the IC50 entry is listed as “Not Active”. As for `CCC/C(=C\c1cc(OCc2ccc3nc(C(F)(F)F)cc(OC)c3c2)ccc1NC(=O)c1ccc(F)cc1)C(=O)O`, in data set [1] (read-out: IC50), the half-inhibitory concentration (IC50) turned out to be 9.5 µM.

With `CCC/C(=C\c1cc(OCc2ccc3nc(C(F)(F)F)cc(OC)c3c2)ccc1OCCN1CCNCC1)C(=O)O`, the IC50 in data set [1] (read-out: IC50) was 9.6 µM.

Turning to `COc1cc(C(F)(F)F)nc2ccc(COc3ccc(OCc4ccc(F)cc4)c(/C=C(\CC4CC4)C(=O)O)c3)cc12`, the IC50 in data set [1] (read-out: IC50) worked out at 8.4 µM. On the same count and under the same terms, with `COc1cc(C(F)(F)F)nc2ccc(COc3ccc(OCc4ccc(F)cc4)c(/C=C(\C)C(=O)O)c3)cc12` the figure was 9.4 µM.

Consider `CCC/C(=C\c1cc(OCc2ccc3ncccc3c2)ccc1OCC1CCN(C)CC1)C(=O)O`, for which, in data set [1] (read-out: IC50), the IC50 was found to be 15.1 µM. Consider `CCCCC(Cc1cc(OCc2ccc3nc(C(F)(F)F)cc(OC)c3c2)ccc1OCc1ccc(C(F)(F)F)cc1)C(=O)O` (configuration not stated), for which, in data set [1], the IC50 result was “Not Active”. For the molecule `CC/C(=C\c1cc(OCc2ccc3nc(C(F)(F)F)cc(OC)c3c2)ccc1OCc1ccc(F)cc1)C(=O)O`, the IC50 in data set [1] (read-out: IC50) worked out at 5.7 µM. On the same count and under the same terms, the same measure for `CCC/C(=C\c1cc(OCc2ccc3nc(C(F)(F)F)cc(OC)c3c2)ccc1OCc1ccc(F)cc1)C(=O)O`: 3.2 µM. In the case of `COc1cc(C(F)(F)F)nc2ccc(COc3ccc(OCc4ccc(F)cc4)c(/C=C(\F)C(=O)O)c3)cc12`, in data set [1], the IC50 result is recorded as “Not Active”.
